Calls of active or inactive are those of the source. How the calls were made is not given here.
Each compound was assayed on Jurkat NF-kB reporter, luminescence (assay: Jurkat NF-kB signaling inhibitors – cell-based, luminescence, selectivity assay for B-cell receptor NF-kB inhibitor project, dose response (AID 489006)).

Row | Structure (SMILES) | IC50
1 | CC(C)(C)c1ccc(-c2nnc(SCC(=O)NC3CC3)o2)cc1 | > 80 µM (inactive)
2 | CCCOc1ccc(NC(=O)C(=O)NCCCn2ccnc2)cc1 | > 80 µM (inactive)
3 | COc1cc(C2C(C#N)=C(N)Oc3cc(N)ccc32)cc(OC)c1OC (centres undefined) | > 80 µM (inactive)
4 | CCn1c(=O)cc(SCC(=O)N2CCCCC2)c2ccccc21 | > 80 µM (inactive)
5 | Cc1ccc(C(=O)CSc2nnc(COc3cccc(C)c3)o2)cc1 | > 80 µM (inactive)
6 | COc1ccc(/C=C\C(=O)O[C@@H]2C(O)C(O[C@@H]3OC(C)[C@H](O[C@@H]4OCC(O[C@H]5O[C@H](CO)[C@@H](O)C(O)C5O)C(O)C4O)C(O)C3O)[C@H](OC(=O)[C@]34CCC(C)(C)C[C@@H]3C3=CCC5[C@@]6(C)CC(O)C(O[C@@H]7OC(CO)C(O)[C@H](O)[C@H]7O)[C@@](C)(C(=O)O)C6CC[C@@]5(C)[C@]3(CO)CC4)O[C@H]2C)cc1 (some centres undefined) | 2.88 µM
7 | Cc1csc(NC(=O)/C=C/c2ccc3c(c2)OCO3)n1 | > 80 µM (inactive)
8 | COc1ccc(-c2nn(C)c(=O)c3ccccc23)cc1NS(C)(=O)=O | > 80 µM (inactive)
9 | CCOC(=O)/C=C(\C)Sc1cc(=O)oc2ccccc12 | 4 µM
10 | CCc1ccc(/C=C2/SC(=S)N(CCC(=O)Nc3ccc(C(=O)O)cc3)C2=O)cc1 | > 80 µM (inactive)
11 | CCC(=O)N1c2ccccc2C(N(C(C)=O)c2ccccc2)CC1C (centres undefined) | > 80 µM (inactive)
12 | CN1C(=O)CC(c2ccco2)Sc2ccccc21 (centres undefined) | > 80 µM (inactive)
13 | COC(=O)[C@@H]1Cc2c([nH]c3ccccc23)C(C)(C)N1C(=O)CCl | 1.73 µM
14 | C[C@H]1CCC/C=C/[C@@H]2C[C@H](O)C[C@H]2[C@H](O)/C=C/C(=O)O1 | > 80 µM (inactive)
15 | O=C(CN1C(=O)c2ccccc2S1(=O)=O)c1ccc(OC(F)F)cc1 | 3.15 µM
16 | CCOc1ccc(-c2cc(CCCC(=O)NCc3ccco3)no2)cc1 | > 80 µM (inactive)
17 | CCOc1ccc(-c2cc(CCCC(=O)NCc3ccc(C)cc3)no2)cc1 | 6.59 µM
18 | O=C(CCCN1C(=O)/C(=C/c2ccccc2Cl)SC1=S)NNC(=O)c1ccccc1Cl | 1.76 µM
19 | COc1ccc(C(=O)Nc2ccccc2C(=O)NCc2ccco2)cc1OC | 61.7 µM (inactive)
20 | CCn1c(=O)c2cc(C(=O)NC(C)C)sc2c2ccccc21 | > 80 µM (inactive)
21 | CCc1sc(C(=O)Nc2cccc(-n3cnnn3)c2)cc1C | > 80 µM (inactive)
22 | CCc1cccc(NC(=O)c2ccc(CNc3c(N4CCCC4)c(=O)c3=O)cc2)c1 | > 80 µM (inactive)
23 | Cc1c(CCC(=O)NCCCn2ccnc2)c(=O)oc2c(C)c3oc4c(c3cc12)CCCC4 | 11 µM
24 | CN1C(=O)c2cccc3c(S(=O)(=O)Nc4ccccc4F)ccc1c23 | 35.8 µM (inactive)

Row | Structure (SMILES) | IC50
25 | COC(=O)c1c(NC(=O)c2cccc([N+](=O)[O-])c2)sc(C(N)=O)c1C | > 80 µM (inactive)
26 | CCN(CC)c1ccc2cc(NC(=O)CCC(=O)O)c(=O)oc2c1 | 0.46 µM
27 | Cc1cc(OCC(=O)Nc2ccc(CCO)cc2)c2c(C)c(C)c(=O)oc2c1 | > 80 µM (inactive)
28 | COc1ccc(OC)c(C2CC(=O)Nc3cc(OC)c(OC)c(OC)c32)c1 (centres undefined) | > 80 µM (inactive)
29 | Cc1c(CCC(=O)N2CCC[C@H]2C(=O)O)c(=O)oc2cc3oc4c(c3cc12)CCCC4 | > 80 µM (inactive)
30 | COc1ccc(-c2ccoc2)cc1[C@H]1[C@H]2C=CC[C@@H](C)[C@@H]2C(=O)N1Cc1ccccc1 | 50.4 µM (inactive)
31 | CC(C)(C)c1ccc(-c2noc(CCC(=O)N3CCOCC3)n2)cc1 | > 80 µM (inactive)
32 | N=c1c(C(=O)NC2CCCC2)cc2c(=O)n3ccccc3nc2n1CCN1CCOCC1 | > 80 µM (inactive)
33 | Fc1ccc(C2=Nn3c(nnc3-c3n[nH]c4c3CCC4)SC2)cc1 | > 80 µM (inactive)
34 | COc1ccc(-c2noc(CCCC(=O)Nc3ccc(C(N)=O)cc3)n2)cc1 | 11.9 µM
35 | CCn1c(=O)cc(SCC(=O)N2CCN(C)CC2)c2ccccc21 | > 80 µM (inactive)
36 | O=C(CCCc1nc(-c2ccccc2Cl)no1)NC1CCCC1 | 1.02 µM
37 | O=C(Nc1nc(-c2ccccc2)cs1)c1ccccc1NS(=O)(=O)c1ccc(F)cc1 | 19 µM
38 | C[C@H]1CCC/C=C/C2C[C@H](O)CC2[C@H](O)/C=C/C(=O)O1 (some centres undefined) | > 80 µM (inactive)
39 | O=C(Nc1cccc(Oc2ccc3c(c2)C(=O)NC3=O)c1)c1cccs1 | > 80 µM (inactive)
40 | O=S(=O)(NCc1ccncc1)c1ccc(Br)s1 | > 80 µM (inactive)
41 | COc1ccc(C(C(=O)NC2CCCCC2)N(C(=O)CCl)c2ccc(Cl)cc2)cc1 (centres undefined) | 0.47 µM
42 | N=c1c2c(n(Cc3ccc(Cl)cc3Cl)c3c1CCC3)CCCC2 | 16.2 µM
43 | CCOC(=O)c1nn(-c2ccccc2)c(C#N)c1NC(=O)c1nn(CC)cc1Br | > 80 µM (inactive)
44 | COc1ccc(/C=C2/SC(=S)N(CCC(=O)O)C2=O)cc1 | 0.4 µM
45 | CC1CCc2c(sc3nc(C(C)(C)C)nc(N4CCN(C(=O)CCl)CC4)c23)C1 (centres undefined) | 1.27 µM
46 | CC(C)(C)c1ccc(-c2noc(CCC(=O)NCC3CCCO3)n2)cc1 (centres undefined) | 0.23 µM
47 | CCN(CC(=O)Nc1c(F)cccc1F)C(=O)c1cc(S(=O)(=O)N2CCOCC2)ccc1N1CCCC1 | > 80 µM (inactive)
48 | COc1ccc(-c2noc(N3CCC(C(=O)Nc4ccc(OC)c(OC)c4)CC3)n2)cc1 | > 80 µM (inactive)

Row | Structure (SMILES) | IC50
49 | CC(C)OCCCNC(=O)c1c(N)n(/N=C/c2ccccn2)c2nc3ccccc3nc12 | 40.2 µM (inactive)
50 | Cc1ccc(/C=C2\SC(=S)N(CCCC(=O)Nc3ccccn3)C2=O)cc1 | 0.76 µM
51 | CCn1c(=O)cc(SCC(=O)N2CCC(C)CC2)c2ccccc21 | > 80 µM (inactive)
52 | COc1cc(-c2cc(=O)c3c(O)c(OC)c(OC)c(OC)c3o2)cc(OC)c1OC | > 80 µM (inactive)
53 | CCOc1cc2nc(-c3ccc(OC)c(OC)c3)nc(N3CCOCC3)c2cc1OC | 45.8 µM (inactive)
54 | Cc1ccoc1C(=O)Nc1ccc(CC(=O)O)cc1 | 0.26 µM
55 | Cc1ccc(-c2nn3c(C)nnc3c3ccccc23)cc1S(=O)(=O)NC(C)(C)CO | 23.9 µM (inactive)
56 | Cc1ccc(-c2cc(C(=O)NCCCN3CCOCC3)no2)cc1 | 15.2 µM
57 | Cn1cnc([N+](=O)[O-])c1Sc1ccc([N+](=O)[O-])cc1 | 8.41 µM
58 | O=c1cccc2c1c1cc[nH]c3ccc(=O)n2c31 | 2.3 µM
59 | COc1ccc(/C=C2\SC(=S)N(CCC(=O)Nc3ccc(O)cc3)C2=O)cc1 | > 80 µM (inactive)
60 | CCOc1ccc(-c2c[n+]3c(n2-c2ccccc2)CCCCC3)cc1 | > 80 µM (inactive)
61 | COc1ccc(NS(=O)(=O)c2cc(NC(=O)c3cc(=O)c4ccccc4o3)ccc2OC)cc1 | > 80 µM (inactive)
62 | O=C(NNC(=O)C12CC3CC(CC(Br)(C3)C1)C2)c1ccccc1F | > 80 µM (inactive)
63 | COc1ccc(C(=O)N/N=C/c2ccc(OC)c(CN3CCCc4ccccc43)c2)cc1 | > 80 µM (inactive)
64 | COc1ccc(Cc2nc(-c3ccc(NC(=O)c4cccnc4)cc3)no2)cc1 | > 80 µM (inactive)
65 | C=CCn1c(O)c(C(CC)=NC(C)c2ccccc2)c(=O)[nH]c1=O (centres undefined) | 51.3 µM (inactive)
66 | COC(=O)[C@@]12OC[C@]34[C@H]([C@@H](O)[C@@H]1O)[C@@]1(C)C(=O)C(O[C@@H]5OC(CO)[C@@H](O)[C@@H](O)[C@@H]5O)=C[C@@H](C)[C@@H]1C[C@H]3OC(=O)[C@H](OC(=O)/C=C(\C)C(C)(C)OC(C)=O)[C@@H]24 (some centres undefined) | 0.82 µM
67 | CC(C)Cn1c([N+](=O)[O-])nc2c1c(=O)[nH]c(=O)n2C | 7.23 µM
68 | COc1ccc(-n2c(-c3ccc(Br)cc3)c[n+]3c2CCc2ccccc2-3)cc1 | 31.8 µM (inactive)
69 | CCN(CC)CCCN=Cc1c(-c2ccccc2)[nH]n(-c2nc3ccccc3s2)c1=O | 7.55 µM
70 | COc1ccc(C(=O)Nc2nnc(Cc3cccs3)s2)cc1OC | > 80 µM (inactive)
71 | COc1ccc(-c2csc3nc(-c4cccnc4)nc(N4CCC(C(N)=O)CC4)c23)cc1OC | 12.1 µM
72 | CCCCOc1ccc(NC(=O)C(=O)NCCCn2ccnc2)cc1 | > 80 µM (inactive)

Row | Structure (SMILES) | IC50
73 | CCOC(=O)C1CCN(c2ncnc3c2cnn3-c2ccc(OC)cc2)CC1 | > 80 µM (inactive)
74 | COc1ccc(-c2n(Cc3ccccc3)c3ccccc3[n+]2Cc2ccccc2)cc1 | 42.7 µM (inactive)
75 | CN(C)c1cc[n+](Cc2c(Cl)cccc2Cl)cc1 | > 80 µM (inactive)
76 | CNC(=O)c1cc(Nc2nnc(-c3ccc(O)cc3)c3ccccc23)ccc1OC | > 80 µM (inactive)
77 | CCNc1nc(C)c2cc(Br)c(=O)n(CC)c2n1 | 7.89 µM
78 | COc1ccc(-c2noc(CCCC(=O)O)n2)cc1 | 1.4 µM
79 | CC(C)c1ccc(/C=C2\SC(=S)N(CCC(=O)NCCCn3ccnc3)C2=O)cc1 | 2.64 µM
80 | NNC(=O)COc1ccc(-c2nccc(-c3ccc(F)cc3)n2)cc1 | 1.79 µM
81 | Cc1ccc(Nc2nc(N3CCOCC3)nc(N3CCOCC3)n2)cc1C | > 80 µM (inactive)
82 | CCCc1nc2c(C)cc(-c3nc4ccccc4n3C)cc2n1Cc1ccc(-c2ccccc2C(=O)O)cc1 | > 80 µM (inactive)
83 | CCN1C(=O)c2cccc3c(S(=O)(=O)NCC4CCCO4)ccc1c23 (centres undefined) | > 80 µM (inactive)
84 | Cc1ccc(-c2c[n+]3c(n2-c2ccccc2)SCC3)cc1 | > 80 µM (inactive)
85 | O=C(Nc1ccc(NC(=O)c2cc3ccccc3o2)cc1)c1ccc2c(c1)OCCO2 | > 80 µM (inactive)
86 | O=C(CSCCO)Nc1ccc(C23CC4CC(CC(C4)C2)C3)cc1 | > 80 µM (inactive)
87 | COc1cc(-c2nc(C(=O)NCC3CCCO3)cc3c2[nH]c2ccccc23)cc(OC)c1OC (centres undefined) | 18 µM
88 | O=C1NC[C@H](c2ccccc2)OC(=O)[C@@H](Cc2ccc(F)cc2)C/C=C\C[C@H]1CC(=O)N(CCO)Cc1ccccc1 | 11.8 µM
89 | CCC(C)[C@H](N)c1nnc(SCC(=O)c2ccc(Cl)cc2)o1 (some centres undefined) | 72.9 µM (inactive)
90 | O=C(CCl)N(c1ccc(Cl)cc1)c1c[nH]c2ccccc12 | 0.85 µM
91 | CC(C)CCNC(=O)CCCOc1cc(=O)n(C)c2ccccc12 | 70.4 µM (inactive)
92 | COc1ccc(C2=NCc3nnc(C)n3-c3ccc(Cl)cc32)cc1Cl | 36.4 µM (inactive)
93 | COc1ccc(-c2ccc(C)cc2)cc1[C@H]1[C@H]2C=CC[C@@H](C)[C@@H]2C(=O)N1Cc1ccccc1 | > 80 µM (inactive)
94 | COc1ccc(/C=C2\SC(=O)N(CCCC(=O)Nc3ccc(C(=O)O)cc3)C2=O)cc1OC | 29.4 µM (inactive)

From PubChem BioAssay AID489006 (Sanford-Burnham Center for Chemical Genomics, 2010)
